These results are taken from patent US20220409582A1, “COMBINATION THERAPIES COMPRISING PANOBINOSTAT FOR THE TREATMENT OF CHOLANGIOCARCINOMA” (SEALD AS, priority 2019, published 2022).

Each structure is given as a SMILES string. Where two headings read alike, the source gives them in different places.

One assay has as its system KMCH-1 cell line. Nature of the assay: Cell TitreGlo cell viability, KMCH-1 combined cholangio- and hepatocarcinoma cells. The class given is cell-based. The conditions noted are these: single substance treatment, cell viability 48 h post drug addition. The method, then: (§1) Various cholangiocarcinoma (CCA) cell lines were used for this drug screening.
(§2) For panobinostat as single substance treatment seven cholangiocarcinoma cell lines were used. Panobinostat was then tested in combination with 23 other drugs on four cholangiocarcinoma cell lines. A single concentration of the combination drug was added based on a previously determined IC20 value for the combination drug tested alone on each of the four cell lines. The cell line TFK-1 was insensitive to some tested drugs.

In another assay the test system is CC-LP-1 cell line. As to the kind of experiment: Cell TitreGlo cell viability, CC-LP-1 cholangiocarcinoma cells. The class given is cell-based. The following applies: Homo sapiens, single substance treatment, cell viability 48 h post drug addition. The procedure: as §1, §2
In a further assay the test system is EGI-1 cell line. As to the kind of experiment: Cell TitreGlo cell viability, EGI-1 cholangiocarcinoma cells. The following applies: for Delta IC50 absolute value: IC50 panobinostat alone minus IC50 panobinostat + secondary drug, positive = potentiation. It counts as cell-based, human. The method, then:
as §1
(§3) For panobinostat as single substance treatment seven cholangiocarcinoma cell lines were used. Panobinostat was then tested in combination with 23 other drugs on four cholangiocarcinoma cell lines. A single concentration of the combination drug was added based on a previously determined IC20 value for the combination drug tested alone on each of the four cell lines.
(§4) The viability data for each plate were normalized to the average of eight replicates of DMSO at 0.1% and seven replicates of Benzethonium Chloride (BzCl) at 100 uM. BzCl serves as a cell killing control that accounts for background signal from dead cells in the CTG luminescence assay. Raw luminescence data were normalized according to the following equation: […]
(§5) The normalized data for each dose response curve were then fit using the function drm from the R package drc. This function uses a four parameter log-logistic curve to fit the dose response data, resulting in values for curve minimum, maximum, IC50, and slope. In the case where a log-logistic curve could not be fit to the data, a logistic curve was used instead.

The subject of assay [1] is normal cholangiocytes, cell line H69 (CVCL_8121). The following applies: read-out: H69 cell line Mono, panobinostat alone.
Excerpt: The effects of various cytotoxic agents on the toxicity of panobinostat in normal cholangiocytes was examined. The cell line H69 (CVCL_8121) was used in experimental procedures described above to determine the IC50 value for panobinostat (the primary drug) on these cells when used in combination with cytotoxic agents (secondary drug) added to the cells at their IC20 concentrations.
The larger difference the more toxic the combination.
In the next assay the test system is TFK-1 cell line. As to the kind of experiment: Cell TitreGlo cell viability, TFK-1 cholangiocarcinoma cells. The conditions noted are these: for Delta IC50 absolute value: IC50 panobinostat alone minus IC50 panobinostat + secondary drug, positive = potentiation. It counts as cell-based, human. The method, then: as §1, §3, §4, §5
Another assay concerns CC-SW-1 cell line. As to the kind of experiment: Cell TitreGlo cell viability, CC-SW-1 cholangiocarcinoma cells. The class given is cell-based, human. The conditions noted are these: for IC50: Homo sapiens; for Delta IC50 absolute value: IC50 panobinostat alone minus IC50 panobinostat + secondary drug, positive = potentiation; for Delta IC50 (%): relative change of panobinostat IC50 with secondary drug. The method, then:
as §1, §3, §4, §5

The next assay has as its system KMBC cell line. Nature of the assay: Cell TitreGlo cell viability, KMBC cholangiocarcinoma cells. The following applies: single substance treatment, cell viability 48 h post drug addition. The class given is cell-based. The procedure:
as §1, §2

For the next assay, the system named is HuCC-T1 cell line. As to the kind of experiment: Cell TitreGlo cell viability, HuCC-T1 cholangiocarcinoma cells. The conditions noted are these: for IC50: Homo sapiens. The class given is cell-based, human. The method, then: as §1, §3, §4, §5
Where [2] appears, read: Homo sapiens, 48 h, single substance treatment, TFK-1, cell viability 48 h post drug addition, read-out: IC50.
The mark [3] stands for this setting: single substance treatment, CC-SW-1, cell viability 48 h post drug addition, read-out: IC50.

Take `Cc1[nH]c2ccccc2c1CCNCc1ccc(/C=C/C(=O)NO)cc1` [Panobinostat, (E)-N-hydroxy-3-[4-[[2-(2-methyl-1H-indol-3-yl)ethylamino]methyl]phenyl]prop-2-enamide]: the IC50 in the assay on KMCH-1 cell line stood at 99 nM; in the assay on CC-LP-1 cell line it was 81 nM; in the assay on EGI-1 cell line (Homo sapiens, EGI-1, panobinostat alone, read-out: EGI-1 cell line Mono), 62.9 nM; in the assay on EGI-1 cell line (single substance treatment, EGI-1, cell viability 48 h post drug addition, listed as panobinostat, read-out: IC50), 99 nM; in the assay with EGI-1 cell line (single substance treatment, EGI-1, cell viability 48 h post drug addition, read-out: IC50), 36 nM; in assay [1], 56.8 nM. Also, the IC50 with TFK-1 cell line (setting [2]) stood at 70 nM; with TFK-1 cell line (Homo sapiens, panobinostat alone, read-out: TFK-1 cell line Mono) it was 51.8 nM; in the assay with TFK-1 cell line (single substance treatment, TFK-1, cell viability 48 h post drug addition, read-out: IC50), 95 nM; in the assay on CC-SW-1 cell line (panobinostat alone, read-out: CC-SW-1 cell line Mono) it was 18.4 nM; with CC-SW-1 cell line (setting [3]) it was 12 nM; with KMBC cell line, 88 nM. In addition, the IC50 in the assay with HuCC-T1 cell line (HuCCT-1, panobinostat alone, read-out: HuCCT-1 cell line Mono) worked out at 42.4 nM; in the assay with HuCC-T1 cell line (HuCCT-1, single substance treatment, HuCC-T1, cell viability 48 h post drug addition, read-out: IC50), 90 nM. Moreover, the “Therapeutic index Mono” value with EGI-1 cell line (IC50 in H69 normal cells / IC50 in EGI-1, panobinostat alone) is on record as 0.9; in the assay on TFK-1 cell line (IC50 in H69 normal cells / IC50 in TFK-1, panobinostat alone), 1.1; in the assay on CC-SW-1 cell line (IC50 in H69 normal cells / IC50 in CC-SW-1, panobinostat alone), 3.1; in the assay with HuCC-T1 cell line (IC50 in H69 normal cells / IC50 in HuCCT-1, panobinostat alone), 0.9.

As for `Cc1ccc(C(=O)N(CCCN)[C@@H](c2oc3cc(Cl)ccc3c(=O)c2Cc2ccccc2)C(C)C)cc1` [SB-743921], the “Delta IC50 absolute value” with EGI-1 cell line (EGI-1) is reported as 18.8 nM; in the assay with TFK-1 cell line (TFK-1) it was 28.7 nM; with CC-SW-1 cell line (CC-SW-1), 17.1 nM; in the assay with HuCC-T1 cell line (HuCCT-1, IC50 panobinostat alone minus IC50 panobinostat + secondary drug, positive = potentiation) it was 10.8 nM. For the same compound, the IC50 with TFK-1 cell line (setting [2]) worked out at 8 nM. Besides, the “Delta IC50 (%)” value in the assay with CC-SW-1 cell line (CC-SW-1) came to 93%; with HuCC-T1 cell line (HuCCT-1, relative change of panobinostat IC50 with secondary drug), 27%.

Regarding `CC[C@@]1(O)C(=O)OCc2c1cc1n(c2=O)Cc2cc3c(CN(C)C)c(O)ccc3nc2-1` [Topotecan, 9-[(dimethylamino)methyl]-10-hydroxy-(45)-camptothecin], the “Delta IC50 absolute value” came to 33.1 nM in the assay with EGI-1 cell line (EGI-1) and 22.3 nM in the assay on TFK-1 cell line (TFK-1). Besides, the “Therapeutic index Combination” value in the assay on EGI-1 cell line (IC50 in H69 normal cells / IC50 in EGI-1, panobinostat + secondary drug at IC20) is 2.8; in the assay with TFK-1 cell line (IC50 in H69 normal cells / IC50 in TFK-1, panobinostat + secondary drug at IC20) it was 2.9; in the assay on CC-SW-1 cell line (IC50 in H69 normal cells / IC50 in CC-SW-1, panobinostat + secondary drug at IC20) it was 5.1; with HuCC-T1 cell line (IC50 in H69 normal cells / IC50 in HuCCT-1, panobinostat + secondary drug at IC20), 1.5. Further, the results for the IC50 with TFK-1 cell line (setting [2]) and in the assay on CC-SW-1 cell line (setting [3]) were 373 nM and 54 nM, respectively.

On to `CC(=O)Nc1cccc(-n2c(=O)n(C3CC3)c(=O)c3c(Nc4ccc(I)cc4F)n(C)c(=O)c(C)c32)c1` [Trametinib], for which the figures for the “Delta IC50 absolute value” in the assay on EGI-1 cell line (EGI-1), in the assay on TFK-1 cell line (TFK-1) and in the assay on CC-SW-1 cell line (CC-SW-1) were 29.4 nM, 18.9 nM and 11.3 nM, respectively. Besides, the “effect on cell viability as single substance treatment” value in the assay with TFK-1 cell line (TFK-1, 0.1-1000 nM, 48 h) is given as “only minor efficacy”; with HuCC-T1 cell line (HuCCT-1, 0.1-1000 nM, 48 h), “only minor efficacy”. Also, in the assay on CC-SW-1 cell line (CC-SW-1), the “Delta IC50 (%)” value was found to be 62%. The IC44 in the assay with HuCC-T1 cell line (HuCCT-1, single substance, dose used instead of IC20) was determined as 8.8 nM.
